How the values were obtained:
Format in all cases: in vivo, human
HCMV specific T cells = assay: HCMV-specific CD8+ T cells and T cell memory phenotype in PBMC at day +60 after BMT (flow cytometry)
Description: (§1) FIGS. 7A through 7G. […] Patients included for the evaluation of human CMV (HCMV) reactivation (as in FIG. 6) were analyzed for HCMV specific T cells and other immune subsets. A total of 50 PBMC samples at day + 60 after bone marrow transplantation (BMT) were identified based on availability of HCMV tetramers and peptides. FIG. 7A. Frequency of HCMV tetramer positive CD8^+ T cells in patients with or without HCMV reactivation. FIG. 7B. Frequency of cytokine (IFNy^+TNF^+) producing CD8^+ T cells following HCMV peptide stimulation in patients with or without HCMV reactivation. FIG. 7C. Frequency of HCMV tetramer positive CD8^+ T cells in patients receiving tocilizumab (TCZ) (n = 21) or placebo control (Ctrl) (n = 29). FIG. 7D. Frequency of cytokine (IFNv^+TNF^+) producing CD8^+ T cells in patients receiving TCZ or placebo. FIG. 7E. Memory phenotype for CD4^+ T cells in patients receiving TCZ or placebo. FIG. 7F. Memory phenotype for CD8^+ T cells in patients receiving TCZ or placebo. FIG. 7G. Proportions of naive B cells, mature B cells and plasmablasts in a subset of the above cohort (n = 19 for control and 17 for TCZ groups respectively). *P < 0.05.
Next the effect of IL-6 inhibition was investigated on donor T and B cell responses after BMT. Firstly, HCMV-specific CD8^+ T cells defined by HCMV-tetramer staining or cytokine production (IFNγ and/or TNF) were analyzed following HCMV peptide stimulation in conjunction with markers of T cell memory (CD45RA and CCR7). The inventors identified 50 PBMC samples at day + 60 after BMT based on availability of HCMV tetramers (and/or peptides). […] Within the subset of patients with HCMV reactivation, HCMV tetramer^+ cells were present at a lower frequency in patients with higher HCMV viremia (FIG. 7A right).

MCP-1 = assay: plasma MCP-1 in phase III BMT patients; conditions: day 60 after BMT
Source text: (§2) FIGS. 11A through 11D. IL-6 inhibition with tocilizumab (TCZ) attenuates human CMV (HCMV) viremia after clinical BMT. FIG. 11A. Kinetics of HCMV viremia over time for placebo control versus TCZ groups. FIG. 11B (left). The number of PCR positive events of HCMV viremia plotted in (A) and depicted in the two patient cohorts. FIG. 11B (right). Distribution of HCMV reactivation in the patient cohorts receiving volunteer unrelated donor (VUD) grafts. FIG. 11C. Plasma concentration of MCP-1 at day + 60 after bone marrow transplantation (BMT) in patients was quantified and shown in relation to HCMV reactivation (≥ 600 copies/µL) and TCZ treatment. FIG. 11D. Pair-wise comparison of MCP-1 from day + 30 to + 60 in patients without (left) or with (right) significant CMV reactivation (≥ 600 copies/µL) in the placebo group. *P < 0.05; ****P < 0.0001.
Flow cytometry. Antibody stained single-cell suspensions were analyzed on an LSR Fortessa™ cytometer in Australia or a FACSymphony™ A3 in Seattle USA (Becton Dickinson) and data are processed using FlowJo version 10 (Tree Star). Cytokines levels in the plasma were determined with the BD Cytometric Bead Array system (BD Biosciences).
Furthermore, high level HCMV reactivation (≥ 600 copies/ul) was associated with a greater increase in MCP-1 between day + 30 and + 60 than seen in patients with low level reactivation (FIG. 11D). […]

HCMV-specific IgG = HCMV-specific IgG titers in plasma at day +30 after BMT (chemiluminescence, Diasorin Liaison XL)
Source text: FIGS. 8A through 8C. IL-6 inhibition with tocilizumab is associated with the maintenance of human CMV (HCMV)-specific IgG. FIGS. 8A to 8C. Quantification of HCMV-specific IgG titers in plasma at day + 30 after bone marrow transplantation (BMT). FIG. 8A. D^-R^+ and D^+R^+ patients are classified into 3 groups based on HCMV reactivation (reactivation before day + 35, reactivation between day + 35 and + 100, no reactivation by day + 100) and respective HCMV-specific IgG titers are shown. FIG. 8B. HCMV-specific IgG in D^-R^+ and D^+R^+ patients are shown for tocilizumab (TCZ) versus placebo control (Ctrl) groups (left). The analysis for the subset of unrelated transplants is shown right. FIG. 8C. Titers of HCMV-specific IgG in D^+R^- patients are shown for TCZ versus placebo control groups. Dotted lines indicate detection limit of the HCMV-IgG assay (5 -180 U/mL).
Total and HCMV-specific IgG. The concentration of total IgG was determined with Enzyme-linked immunosorbent assay (Invitrogen) as per the manufacturer’s protocol. Quantification of HCMV IgG was conducted by Sullivan Nicolaides Pathology Queensland (Bowen Hills, QLD, Australia) using a chemiluminescence method on the Diasorin Liaison® XL platform. This semiquantitative method allows for a detection range of 5 - 180 Unit/mL.
Given the lack of effects of IL-6 inhibition on T and B cells, HCMV-specific IgG was quantified after BMT. […]

CD19+ B cells = assay: B cell subsets and B cell counts in peripheral blood after clinical BMT
Description: as §1
FIGS. 12A through 12B. The effects of IL-6 inhibition with tocilizumab (TCZ) on B cell recovery following clinical BMT. FIG. 12A. B cell counts in peripheral blood in at-risk patients at day + 30 and + 60 after BMT. FIG. 12B. B cell counts in peripheral blood at day + 60 after bone marrow transplantation (BMT), classified into 4 groups based on the TCZ administration and the presence of acute graft versus host disease (aGVHD).
Furthermore, there was no difference in the memory phenotypes of CD4^+ and CD8^+ T cells between placebo and TCZ treated patients (FIGS. 7E - 7F). The inventors also analyzed CD19^+ B cells in available samples (n = 19 for Ctrl and n = 17 for TCZ).

HCMV [1] = assay: phase III randomized placebo-controlled trial: HCMV viremia and cumulative incidence of HCMV reactivation after allogenic BMT
Source text: FIGS. 6A through 6D. IL-6 inhibition with tocilizumab reduces human CMV (HCMV) reactivation in clinical allogenic bone marrow transplantation (BMT) recipients. Participants of a phase 3 clinical trial who were enrolled at Royal Brisbane and Women’s Hospital and were at-risk of HCMV reactivation were included for analysis (n = 85). These patients were either seropositive for HCMV (R^+) or received grafts from seropositive donors (D^+). FIGS. 6A to 6C. Cumulative incidence of any detectable HCMV reactivation after BMT in at-risk patients. Solid lines represent the tocilizumab (TCZ) group and broken lines represent the placebo control group. FIG. 6A. HCMV reactivation in the total cohort (left) or the subset of patients with grade 0 - I acute graft versus host disease (aGVHD) (right). FIG. 6B. HCMV reactivation in all recipients of volunteer unrelated donor (VUD) grafts (left) or the subset of patients with grade 0 - I aGVHD (right). FIG. 6C. HCMV reactivation in all recipients of matched sibling donor (MSD) grafts (left) or those with grade 0 - I aGVHD (right). FIG. 6D. Distribution of HCMV serostatus (D^+R^-, D^+R^+ and D^-R^+) in recipients of MSD or VUD grafts.
as §2
(§3) Patients. Patients were enrolled in reported phase I/II (ACTRN12612000726853) or phase III (ACTRN12614000266662) clinical trials. The studies were approved by the Royal Brisbane and Womens Hospital institutional human ethics committee and all patients provided signed informed consent.
(§4) HCMV monitoring. CMV viral load was monitored using the COBAS® Amplicor CMV Monitor test (Roche Diagnostics, Basel, Switzerland) as previously described (Tey SK, Kennedy GA, Cromer D, Davenport MP, Walker S, Jones LI, et al. Clinical assessment of anti-viral CD8+ T cell immune monitoring using QuantiFERON-CMV® assay to identify high risk allogeneic hematopoietic stem cell transplant patients with CMV infection complications. PloS one. 2013, 8(10), e74744). Cumulative incidence of any detectable HCMV viremia is plotted up to day + 100 after BMT and HCMV is censored at day + 100 of BMT or the time of death if this occurred prior to day 100.
Statistics. Results are presented as median ± interquartile range and the Mann-Whitney U test was used for comparisons. Wilcoxon test is conducted for pair-wise comparisons. Ordinary least-squares method was used in the linear or semi-log regression analysis. A two-sided P value of 0.05 was considered statistically significant. […]

HCMV [2] = assay: phase I/II clinical trial of tocilizumab added to standard GVHD prophylaxis: HCMV reactivation vs historical cohort; conditions: at risk BMT recipients; compared to non-randomized similarly transplanted historical cohort
Source text: FIGS. 9A through 9C. IL-6 inhibition with tocilizumab is associated with low rates of significant CMV reactivation relative to historical controls. Human CMV (HCMV) viremia over time after bone marrow transplantation (BMT) in patients from (FIG. 9A) a phase I/II clinical trial of the addition of tocilizumab to standard graft versus host disease (GVHD) prophylaxis (left) or (FIG. 9B) a contemporaneous historical control cohort (right). FIG. 9C. Depiction of CMV reactivation > 600 versus < 600 copies/µL of plasma in the two patient cohorts.
as §3
as §4, with “Cumulative incidence of any detectable HCMV viremia is plotted up to day + 100 after BMT and HCMV is censored at day + 100 of BMT or the time of death if this occurred prior to day 100.” left out

Substance: tocilizumab
- frequency of cytokine-producing CD8+ T cells (HCMV specific T cells; day +60 PBMC, HCMV peptide stimulation, TCZ vs placebo): did not have any significant effect
- frequency of HCMV-tetramer+CD8+ T cells (HCMV specific T cells; day +60 PBMC, TCZ (n = 21) vs placebo (n = 29)): did not have any significant effect
- memory phenotypes of CD4+ and CD8+ T cells (HCMV specific T cells; placebo vs TCZ treated patients): no difference
- increase of plasma MCP-1 with HCMV reactivation (≥ 600 copies/ul) (MCP-1): not observed
- effect on HCMV-IgG titers by graft type (HCMV-specific IgG; day +30 plasma, VUD subset): predominantly observed in recipients of VUD grafts
- HCMV-IgG in day +30 plasma (HCMV-specific IgG; seropositive recipients (D-R+ and D+R+), TCZ vs placebo): higher
- absolute numbers of B cells in blood (CD19+ B cells; day +30 or +60, presence or absence of TCZ): not different
- B cell suppression in patients with grade II-IV acute GVHD (CD19+ B cells; day +60): did appear to mitigate
- frequencies of IgD+CD27- naïve B cells, IgD-CD27+ mature B cells or CD38hi plasmablasts (CD19+ B cells; n = 19 Ctrl, n = 17 TCZ): did not impact
- benefit from treatment by serostatus (HCMV [1]; HCMV seropositive patients receiving seronegative grafts (D-R+)): maximum benefit
- HCMV viremia (HCMV [1]; TCZ vs placebo, at-risk patients (n = 85)): a trend towards lower HCMV viremia
- HCMV reactivation, TCZ versus placebo (HCMV [1]; recipients of matched sibling donor grafts): no difference
- protection on HCMV reactivation (HCMV [1]; recipients of volunteer unrelated donor (VUD) grafts, independent of acute GVHD): most profound
- cumulative incidence of HCMV reactivation (HCMV [1]; total cohort, TCZ vs placebo, independent of acute GVHD): a trend towards lower cumulative incidence
- rates of significant HCMV reactivation requiring preemptive therapy (> 600 copies/µL) (HCMV [2]): low rates

Source: US20230151101A1, “METHODS AND COMPOSITIONS TO ENHANCE HUMORAL IMMUNITY TO REDUCE CYTOMEGALOVIRUS INFECTION AND REACTIVATION BY IL-6 INHIBITION” (Fred Hutchinson Cancer Center, priority 2021, published 2023)
